Assay [1] concerns Beet Armyworm (BAW) (Spodoptera exigua). Kind of assay: Bioassay on Beet Armyworm (BAW), 128-well diet tray assay. In kind it is in vivo. Particulars: Spodoptera exigua, 168 h; 50 μg/cm2 on artificial diet, second instar larvae, five to seven days; read-out: Rating BAW (% Control (or Mortality)). The procedure: (§1) Certain molecules disclosed in this document were tested against BAW and CEW using procedures described in the following examples. In the reporting of the results, the “BAW & CEW Rating Table” was used (See Table Section).
Bioassays on BAW (Spodoptera exigua)
(§2) Trays were covered with a clear self-adhesive cover and held at 25° C., 14:10 light-dark for five to seven days. Percent mortality was recorded for the larvae in each well; activity in the eight wells was then averaged. The results are indicated in the table entitled “Table ABC: Biological Results” (See Table Section).

The test system of assay [2] is Corn Earworm (CEW) (Helicoverpa zea). Kind of assay: Bioassay on Corn Earworm (CEW), 128-well diet tray assay. Type of assay: in vivo. To be noted: Helicoverpa zea, 168 h, second instar larvae, five to seven days; for mortality at 0.5 µg/cm2: 0.5 μg/cm2 on artificial diet, read-out: Rating CEW (% Control (or Mortality)), *Tested at 0.5 μg/cm2; for mortality at 50 µg/cm2: 50 μg/cm2 on artificial diet, read-out: Rating CEW (% Control (or Mortality)). The procedure: as §1
Bioassays on CEW (Helicoverpa zea)
as §2

In the case of `Cc1cccc(Cl)c1N/C(S)=N/C(=O)Nc1ccc(-c2ncn(-c3ccc(OC(F)(F)F)cc3)n2)cc1` [Molecule A70], in assay [1], the mortality at 50 µg/cm2 was 50 to 100%. In assay [2], the mortality at 0.5 µg/cm2 lay in the range of 50 to 100%.
On to `Cc1ccc(C(C)C)c(N2C(=O)CS/C2=N\C(=O)Nc2ccc(-c3ncn(-c4ccc(OC(F)(F)F)cc4)n3)cc2)c1` [Molecule A87], for which the mortality at 50 µg/cm2 in assay [1] lay in the range of 50 to 100%. Further, the mortality at 0.5 µg/cm2 in assay [2] lay within 50 to 100%.
Turning to `CC(C)c1ccccc1N/C(S)=C/C(=O)Nc1ccc(-c2ncn(-c3ccc(OC(F)(F)F)cc3)n2)cc1` [Molecule A21, 3-((2-isopropylphenyl)amino)-3-thioxo-N-(4-(1-(4-(trifluoromethoxy)phenyl)-1H-1,2,4-triazol-3-yl)phenyl)propanamide], the mortality at 50 µg/cm2 in assay [1] and in assay [2] was 50 to 100% each time.
`Cc1c(F)cccc1N1C(=O)CS/C1=N\C(=O)Nc1ccc(-c2ncn(-c3ccc(OC(F)(F)F)cc3)n2)cc1` [Molecule A93]: the mortality at 50 µg/cm2 in assay [1] lay within 50 to 100%. Moreover, in assay [2], the mortality at 0.5 µg/cm2 fell in the range of 50 to 100%.
Consider `CC(C)c1ccccc1N1C(=O)CS/C1=C(/C#N)C(=O)Nc1ccc(-c2ncn(-c3ccc(OC(F)(F)F)cc3)n2)cc1` [Molecule A31, (Z)-2-Cyano-2-(3-(2-isopropylphenyl)-4-oxothiazolidin-2-ylidene)-N-(4-(1-(4-(trifluoromethoxy)phenyl)-1H-1,2,4-triazol-3-yl)phenyl)acetamide], for which the mortality at 50 µg/cm2 in assay [1] and in assay [2] was 50 to 100% throughout.
For the compound `CCc1cccc(C)c1N1C(=O)CS/C1=N\C(=O)Nc1ccc(-c2ncn(-c3ccc(OC(F)(F)F)cc3)n2)cc1` [Molecule A103], the mortality at 50 µg/cm2 in assay [1] was 50 to 100%. Moreover, the mortality at 0.5 µg/cm2 in assay [2] is 50 to 100%.
As for `CC(C)C(=O)OCS/C(=N/C(=O)Nc1ccc(-c2ncn(-c3ccc(OC(F)(F)F)cc3)n2)cc1)Nc1c(Cl)cccc1Cl` [Molecule A58], the mortality at 50 µg/cm2 in assay [1] and in assay [2] was 50 to 100% each time.
Regarding `CCc1cccc(C)c1N/C(S)=N/C(=O)Nc1ccc(-c2ncn(-c3ccc(OC(F)(F)F)cc3)n2)cc1` [Molecule A97], the mortality at 50 µg/cm2 in assay [1] lay in the range of 50 to 100%. The mortality at 0.5 µg/cm2 in assay [2] was in the range of 50 to 100%.
Consider `CC(C)C(=O)OCS/C(=N/C(=O)Nc1ccc(-c2ncn(-c3ccc(OC(F)(F)F)cc3)n2)cc1)Nc1c(F)cccc1F` [Molecule A61], for which the mortality at 50 µg/cm2 in assay [1] and in assay [2] was 50 to 100% in each case.
For the compound `CC(C)c1cccc(Cl)c1N/C(S)=N/C(=O)Nc1ccc(-c2ncn(-c3ccc(OC(F)(F)F)cc3)n2)cc1` [Molecule A81], the mortality at 50 µg/cm2 in assay [1] and in assay [2] was 50 to 100% each time.
On to `CC(C)c1ccccc1N1C(=O)CS/C1=N\C(=O)Nc1ccc(-c2ncn(-c3ccc(OC(F)(F)F)cc3)n2)cc1` [Molecule A19, (Z)-1-(3-(2-isopropylphenyl)-4-oxothiazolidin-2-ylidene)-3-(4-(1-(4-(trifluoromethoxy)phenyl)-1H-1,2,4-triazol-3-yl)phenyl)urea], for which the mortality at 50 µg/cm2 in assay [1] and in assay [2] was 50 to 100% throughout.
Take `CC(C)c1cc(F)ccc1N1C(=O)CS/C1=N\C(=O)Nc1ccc(-c2ncn(-c3ccc(OC(F)(F)F)cc3)n2)cc1` [Molecule A117]: in assay [1], the mortality at 50 µg/cm2 is 50 to 100%. Further, the mortality at 0.5 µg/cm2 in assay [2] is 50 to 100%.
On to `Cc1ccc(N2C(=O)CS/C2=N\C(=O)Nc2ccc(-c3ncn(-c4ccc(OC(F)(F)F)cc4)n3)cc2)c(C(C)C)c1` [Molecule A88], for which the mortality at 50 µg/cm2 in assay [1] was 50 to 100%. Also, the mortality at 0.5 µg/cm2 in assay [2] was in the range of 50 to 100%.
Turning to `CC(C)(C)c1ccccc1N/C(S)=N/C(=O)Nc1ccc(-c2ncn(-c3ccc(OC(F)(F)F)cc3)n2)cc1` [Molecule A67], the mortality at 50 µg/cm2 in assay [1] fell in the range of 50 to 100%. Besides, the mortality at 0.5 µg/cm2 in assay [2] lay in the range of 50 to 100%.
As for `Cc1cccc(N2C(=O)CS/C2=N\C(=O)Nc2ccc(-c3ncn(-c4ccc(OC(F)(F)F)cc4)n3)cc2)c1C` [Molecule A75], the mortality at 50 µg/cm2 in assay [1] lay in the range of 50 to 100%. Moreover, in assay [2], the mortality at 0.5 µg/cm2 fell in the range of 50 to 100%.
Regarding `COc1ccc(Cl)cc1N/C(S)=N/C(=O)Nc1ccc(-c2ncn(-c3ccc(OC(F)(F)F)cc3)n2)cc1` [Molecule A99], the mortality at 50 µg/cm2 in assay [1] worked out at 0%.
On to `CC(C)c1c(F)cccc1N/C(S)=N/C(=O)Nc1ccc(-c2ncn(-c3ccc(OC(F)(F)F)cc3)n2)cc1` [Molecule A107], for which the mortality at 50 µg/cm2 in assay [1] was in the range of 50 to 100%. In addition, in assay [2], the mortality at 0.5 µg/cm2 is 50 to 100%.
Take `O=C(/N=C1\SCC(=O)N1c1ccc(Cl)cc1Cl)Nc1ccc(-c2ncn(-c3ccc(OC(F)(F)F)cc3)n2)cc1` [Molecule A92]: the mortality at 50 µg/cm2 in assay [1] fell in the range of 50 to 100%. Moreover, the mortality at 0.5 µg/cm2 in assay [2] lay within 50 to 100%.
For `O=C(/N=C(\S)Nc1ccc(Cl)cc1Cl)Nc1ccc(-c2ncn(-c3ccc(OC(F)(F)F)cc3)n2)cc1` [Molecule A78], in assay [1], the mortality at 50 µg/cm2 came to 0%.
As to `CC(C)n1nccc1N1C(=O)CS/C1=N\C(=O)Nc1ccc(-c2ncn(-c3ccc(OC(F)(F)F)cc3)n2)cc1` [Molecule A121], the mortality at 50 µg/cm2 in assay [1] is 50 to 100%. In addition, the mortality at 0.5 µg/cm2 in assay [2] was 50 to 100%.
Consider `Cc1cccc(C)c1N1CC(C)CS/C1=N\C(=O)Nc1ccc(-c2ncn(-c3ccc(OC(F)(F)F)cc3)n2)cc1` (stereo not shown) [Molecule A39], for which the mortality at 50 µg/cm2 in assay [1] and in assay [2] was 50 to 100% in each case.
With `Cc1cc(C)c(N2CC(C)CS/C2=N\C(=O)Nc2ccc(-c3ncn(-c4ccc(OC(F)(F)F)cc4)n3)cc2)c(C)c1` (stereo not shown) [Molecule A41], the mortality at 50 µg/cm2 in assay [1] and in assay [2] was 50 to 100% in each case.
Take `Cc1ccc(Cl)cc1N/C(S)=N/C(=O)Nc1ccc(-c2ncn(-c3ccc(OC(F)(F)F)cc3)n2)cc1` [Molecule A72]: in assay [1], the mortality at 50 µg/cm2 fell in the range of 50 to 100%. Further, the mortality at 0.5 µg/cm2 in assay [2] lay within 50 to 100%.
Regarding `CC(C)c1c(F)cccc1N1C(=O)CS/C1=N\C(=O)Nc1ccc(-c2ncn(-c3ccc(OC(F)(F)F)cc3)n2)cc1` [Molecule A109], the mortality at 50 µg/cm2 in assay [1] lay within 50 to 100%. Moreover, the mortality at 0.5 µg/cm2 in assay [2] fell in the range of 50 to 100%.
In the case of `COc1ccc(N/C(=N\C(=O)Nc2ccc(-c3ncn(-c4ccc(OC(F)(F)F)cc4)n3)cc2)SCOC(=O)C(C)C)c(C)c1` [Molecule A56], the mortality at 50 µg/cm2 in assay [1] and in assay [2] was 50 to 100% each time.
In the case of `O=C(/N=C1\SCC(=O)N1c1ccccc1Cc1ccccc1)Nc1ccc(-c2ncn(-c3ccc(OC(F)(F)F)cc3)n2)cc1` [Molecule A105], in assay [1], the mortality at 50 µg/cm2 lay in the range of 50 to 100%. The mortality at 0.5 µg/cm2 in assay [2] fell in the range of 50 to 100%.
As for `CC(C)c1ccc(F)cc1N1C(=O)CS/C1=N\C(=O)Nc1ccc(-c2ncn(-c3ccc(OC(F)(F)F)cc3)n2)cc1` [Molecule A86], the mortality at 50 µg/cm2 in assay [1] is 50 to 100%. For the same compound, the mortality at 0.5 µg/cm2 in assay [2] was in the range of 50 to 100%.
As for `Cc1ccc(Cl)cc1N1C(=O)CS/C1=N\C(=O)Nc1ccc(-c2ncn(-c3ccc(OC(F)(F)F)cc3)n2)cc1` [Molecule A76], the mortality at 50 µg/cm2 in assay [1] fell in the range of 50 to 100%. The mortality at 0.5 µg/cm2 in assay [2] was 50 to 100%.
On to `Cc1cc(C)cc(N/C(S)=N/C(=O)Nc2ccc(-c3ncn(-c4ccc(OC(F)(F)F)cc4)n3)cc2)c1` [Molecule A100], for which the mortality at 50 µg/cm2 in assay [1] lay in the range of 50 to 100%. The mortality at 0.5 µg/cm2 in assay [2] lay in the range of 50 to 100%.
As to `Cc1ccc(C(C)C)c(N/C(S)=N/C(=O)Nc2ccc(-c3ncn(-c4ccc(OC(F)(F)F)cc4)n3)cc2)c1` [Molecule A83], the mortality at 50 µg/cm2 in assay [1] was in the range of 50 to 100%.
With `Cc1ccccc1N/C(=N\C(=O)Nc1ccc(-c2ncn(-c3ccc(OC(F)(F)F)cc3)n2)cc1)SCOC(=O)C(C)C` [Molecule A60], the mortality at 50 µg/cm2 in assay [1] and in assay [2] was 50 to 100% each time.
As for `COc1ccc(N/C(S)=C(\C#N)C(=O)Nc2ccc(-c3ncn(-c4ccc(OC(F)(F)F)cc4)n3)cc2)c(C)c1` [Molecule A26, (Z)-2-Cyano-3-mercapto-3-((4-methoxy-2-methylphenyl)amino)-N-(4-(1-(4-(trifluoromethoxy)phenyl)-1H-1,2,4-triazol-3-yl)phenyl)acrylamide], the mortality at 50 µg/cm2 in assay [1] and in assay [2] was 0% in each case.
Take `COc1ccc(Cl)cc1N1C(=O)CS/C1=N\C(=O)Nc1ccc(-c2ncn(-c3ccc(OC(F)(F)F)cc3)n2)cc1` [Molecule A111]: the mortality at 50 µg/cm2 in assay [1] was 50 to 100%. For the same compound, the mortality at 0.5 µg/cm2 in assay [2] was in the range of 50 to 100%.
In the case of `CC(C)c1ccccc1N1C(=O)CS/C1=N\C(=O)Nc1ccc(-c2ncn(-c3ccc(OC(F)(F)C(F)(F)F)cc3)n2)cc1` [Molecule A115], in assay [1], the mortality at 50 µg/cm2 lay within 50 to 100%. Moreover, in assay [2], the mortality at 0.5 µg/cm2 was in the range of 50 to 100%.
`Cc1cccc(N/C(S)=N/C(=O)Nc2ccc(-c3ncn(-c4ccc(OC(F)(F)F)cc4)n3)cc2)c1C` [Molecule A71]: the mortality at 50 µg/cm2 in assay [1] fell in the range of 50 to 100%.
Take `CC(C)c1ccccc1N1C(=O)CS/C1=N\C(=O)Nc1ccc(-c2nnc(-c3ccc(OC(F)(F)C(F)(F)F)cc3)o2)cc1` [Molecule A102, (Z)-1-(3-(2-isopropylphenyl)-4-oxothiazolidin-2-ylidene)-3-(4-(5-(4-(perfluoroethoxy)phenyl)-1,3,4-oxadiazol-2-yl)phenyl)urea]: in assay [2], the mortality at 0.5 µg/cm2 was 50 to 100%.
As for `O=C(/N=C1\SCC(=O)N1c1ccccc1C1CC1)Nc1ccc(-c2ncn(-c3ccc(OC(F)(F)F)cc3)n2)cc1` [Molecule A66], the mortality at 50 µg/cm2 in assay [1] was in the range of 50 to 100%.
The same measure, in the same setting: the same measure for `CC(C)c1ccccc1N/C(S)=N/C(=O)Nc1ccc(-c2ncn(-c3ccc(OC(F)(F)C(F)(F)F)cc3)n2)cc1` [Molecule A112]: 50 to 100%.
As for `CC(C)(C)c1ccccc1N1C(=O)CS/C1=N\C(=O)Nc1ccc(-c2ncn(-c3ccc(OC(F)(F)F)cc3)n2)cc1` [Molecule A95], in assay [2], the mortality at 0.5 µg/cm2 fell in the range of 50 to 100%.

Source of the values: US20150196033A1, “PESTICIDAL COMPOSITIONS AND PROCESSES RELATED THERETO” (priority 2012, published 2015).
